Like-named read-outs stand apart in the source and are kept apart here. Numbered stars: 1 amine (or outer) side, 2 acyl side, 3 side chain; on linkers, the order of the positions; unused ones are H or OH. Square brackets hold non-standard residues; d marks the D form. Peptide text beside a SMILES is read from it. * marks the point of attachment. X1 = N=c1ccc2c(-c3ccc(C(=O)*)cc3C(=O)O)c3ccc(N)c(S(=O)(=O)O)c3oc-2c1S(=O)(=O)O; γGlu = O=C(O)[C@H](CCC(=O)[*:2])N[*:1]
Assays:
[1] = system: colon-like Caco-2 BBE cell monolayers; assay: Apical-to-basolateral transcytosis of fluorescence-labelled ligands across Transwell monolayers; format: in vitro ADME, human; details: colon-like Caco-2 BBE monolayers on Transwell, A-B, 700 nM ligand apical, control conditions (no hNGAL), fluorescence read-out; means ± SEM, n = 9-14
Method: For transyctosis studies Costar Transwell® culture inserts placed on 24-well plates were used (0.4 µM PE membrane, 0.33 cm^2 filter area. Corning Inc., Corning, NY, USA). Briefly, 1.3 ml of Caco-2 BBE medium with 10% FBS was added to the basolateral compartment and Caco-2 BBE colon-like cells were plated at a density of 5 x 10^4 cells/insert in 400 µl medium with 10% FBS added to the apical compartment. The transepithelial electrical resistance (TEER) across the cell monolayer was measured after 0, 24, 48, 72 h culture as well as before and after each experiment. The medium was replaced after 48 h on both, top (apical) and bottom (basolateral) compartments of the culture inserts. […] Before each experiment, the apical medium was replaced by 400 µl medium containing 1% FBS medium and the appropriate fluorescence-labelled ligand at a final concentration of 700 nM with or without 500 pM hNGAL whereas the basolateral medium with 10% FBS remained unchanged. At each experimental time point, 10 µl of the basolateral and the apical medium was removed, frozen at -80° C and subsequently analyzed for fluorescence intensity using standard capillaries in a Monolith NT.015 (NanoTemper Technologies GmbH, Munich, Germany). Data were quantified by semi-logarithmic plotting against standards obtained from stock solutions of fluorescent ligands. […]

[2] = system: colon-like Caco-2 BBE cells; assay: Internalization of fluorescence-labelled ligands, immunofluorescence microscopy; format: cell-based, human; details: for Kd: 24 h, up to 5.6 µM A488-PC3, FBS-free medium, 5-6 experiments
Method: The full-length clone of rat r24p3-R was transiently transfected into CHO cells 24 h after seeding using Lipofectamine 2000, as described previously. Forty eight hours after transfection, r24p3-R- and empty vector (pcDNA3.1)-transfected cells were incubated for 24 h with 0-2.8 µM A488-PC3, as described previously for A546-MT [24]. Colon- or duodenum-like Caco-2 BBE cells were seeded at a density of 50,000 cells/coverslip and grown for 48 h before addition of different concentrations of A488-PC3 or A546-MT ± hNGAL for 24 h in FBS-free medium. Cells were stained with primary α-NT-24p3-R antibody (1:100) and secondary Cy3-coupled anti-rabbit IgG (1:600) for A488-PC3 uptake or with A546-conjugated anti-rabbit IgG (1:600) for A546-MT uptake.
For each experiment, 5-10 images were acquired and quantified as described earlier. For determination of r24p3-R-dependent fluorescence uptake in CHO cells, values in vector-transfected cells were subtracted from values obtained in the corresponding r24p3-R-transfected cells. […] To determine hNGAL-R-specific uptake of fluorescent dye-labeled proteins in Caco-2 BBE cells 5 images of fields with clusters of hNGAL-R expressing Caco-2 BBE cells and 5 images of clusters of Caco-2 BBE cells not expressing hNGAL-R were analyzed in the absence or presence of the ligand of the hNGAL-R, hNGAL/lipocalin-2 (500 pM).
Unless otherwise indicated, the experiments were repeated at least three times and means ± S.D. were calculated, unless otherwise indicated. Analysis by unpaired Student’s t test or one-way ANOVA assuming equality of variance with Newman-Keuls Multiple Comparison test and Dunnett’s post-hoc test was performed with GraphPad Prism 5.0. […] Transcytosis data fitted using a one-phase exponential decay function. All curve fits were done with GraphPad Prism 5.0. Results with P < 0.05 were considered to be statistically significant.

A546-Tf: Alexa Fluor 546-labelled transferrin from human serum (Molecular Probes)
basolateral delivery (AUC over 8 h) [1]: 402.4 ± 28.0 nM x 8 h

N=c1ccc2c(-c3ccc(C(=O)N[C@@H](CCC(=O)N[C@@H](CS)C(=O)N[C@@H](CCC(=O)N[C@@H](CS)C(=O)N[C@@H](CCC(=O)N[C@@H](CS)C(=O)NCC(=O)O)C(=O)O)C(=O)O)C(=O)O)cc3C(=O)O)c3ccc(N)c(S(=O)(=O)O)c3oc-2c1S(=O)(=O)O [A488-PC3] ({X1-γGlu}-C[γGlu]C[γGlu]CG-OH; N-terminus and C-terminus assumed)
Kd ([2]; read-out: first app KD of A488-PC3 internalization (two-site binding fit)): ~90 nM | Kd ([2]; read-out: second app KD of A488-PC3 internalization (two-site binding fit)): ~300 nM | effect of 500 pM hNGAL on uptake of 0.7 µM ligand ([2]; 24 h incubation, 0.7 µM ligand with 500 pM hNGAL, 4-5 experiments): significantly reduced | basolateral delivery (AUC over 8 h) [1]: 299.4 ± 18.7 nM x 8 h

From PMC3734285, “Expression and Function of the Lipocalin-2 (24p3/NGAL) Receptor in Rodent and Human Intestinal Epithelia” (PLoS ONE, 2013)
